The values that follow come from US11639350B2, “Heteroaryldihydropyrimidine derivatives and methods of treating hepatitis B infections” (Janssen Pharmaceutica NV, priority 2018, dated 2023).

Read-outs that look alike come from different tables or passages of the source.

Type in all cases: cell-based
The test system of one data set is HepG2.2.15 cells. In words: Cytotoxicity determination in HepG2.2.15 cells (CCK-8). The conditions noted are these: 6 days of compound treatment, CCK-8, highest concentration 100 μM. Put shortly:
(§1)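 HepG2.2.15 cells seeded at 5,000 cells/well in 2% FBS medium, incubated overnight at 37° C., then treated 6 days with compounds (8 points, 3-fold dilutions, top 100 μM), medium refreshed once midway. CCK-8 added for 2.5 h; A450 read against 630 nm reference; CC50 calculated, averaged over repeats.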

The next data set relates to HBV. The experiment in a line: HBV inhibitory activity: HBV DNA in the culture medium of HepG2.2.15 cells by q-PCR. The method, boiled down: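 HepG2.2.15 cells in 2% FBS medium, 40,000 per well, treated 6 days with compound (medium refreshed once), eight 3-fold dilutions from 10 μM top. HBV DNA extracted from culture medium and quantified by q-PCR; EC50 averaged over repeats. Cytotoxicity run in parallel at 5,000 cells per well, top 100 μM, giving CC50.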

A short description of data set [1]: Cytotoxicity determination in HepG2.2.15 cells (CCK-8). The conditions noted are these: human, 6 days of compound treatment, CCK-8, highest concentration 100 μM. The method, boiled down:
as §1

The mark [2] stands for this setting: HepG2.2.15 cells, 6 days of compound treatment, HBV DNA in culture medium by q-PCR, highest concentration 10 μM, read-out: EC50.
The mark [3] stands for this setting: Hepatitis B virus, HepG2.2.15, 144 h, HepG2.2.15 cells, 6 days of compound treatment, HBV DNA in culture medium by q-PCR, highest concentration 10 μM, read-out: EC50.

Usually CC50 stands for the concentration giving 50% cytotoxicity. Read a low CC50 as harm at low concentration. One may read the EC50 as the midpoint of the concentration-response curve. In the data set on HepG2.2.15 cells, `CCOC(=O)C1=C([C@@H]2CCC[C@H](C(=O)O)CC2)NC(c2nccs2)=NC1c1ccc(F)c(F)c1Cl` (relative stereo) [Compound 302E, (cis)-4-(−6-(2-Chloro-3,4-difluorophenyl)-5-(ethoxycarbonyl)-2-(thiazol-2-yl)-3,6-dihydropyrimidin-4-1)cycloheptanecarboxylic Acid] came in with a CC50 of 14600 nM. Moreover, in the data set on HBV (setting [2]), the EC50 was 25 nM.
Consider `COC(=O)C1=C(C2CCN(C)C(=O)C2)NC(c2nccs2)=NC1c1ccc(F)cc1Cl` (single isomer, unassigned) [Compound 1A, Methyl 4-(2-chloro-4-fluorophenyl)-6-(1-methyl-2-oxopiperidin-4-yl)-2-(thiazol-2-yl)-1,4-dihydropyrimidine-5-carboxylate], for which the CC50 in the data set on HepG2.2.15 cells stood at 90200 nM. For the same compound, the EC50 in the data set on HBV (setting [2]) was found to be 386 nM.
Take `COC(=O)C1=C(C2CCN(C)C(=O)C2)NC(c2nccs2)=NC1c1ccc(F)cc1Cl` (single isomer, unassigned) [Compound 1B, Methyl 4-(2-chloro-4-fluorophenyl)-6-(1-methyl-2-oxopiperidin-4-yl)-2-(thiazol-2-yl)-1,4-dihydropyrimidine-5-carboxylate]: in the data set on HepG2.2.15 cells, it took 13600 nM to reach half-maximal cytotoxicity (CC50). Moreover, the EC50 with HBV (setting [2]) is 96 nM.
Compound `COC(=O)C1=C(C2CCNC(=O)C2)NC(c2nccs2)=NC1c1ccc(F)cc1Cl` (single isomer, unassigned) [Compound 3A, Methyl 4-(2-chloro-4-fluorophenyl)-6-(2-oxopiperidin-4-yl)-2-(thiazol-2-yl)-1,4-dihydro-pyrimidine-5-carboxylate] returned a CC50 in the data set with HepG2.2.15 cells of 35900 nM. The EC50 in the data set with HBV (setting [3]) was 126 nM.
Consider `COC(=O)C1=C(C2CCNC(=O)C2)NC(c2nccs2)=NC1c1ccc(F)cc1Cl` (single isomer, unassigned) [Compound 3C, Methyl 4-(2-chloro-4-fluorophenyl)-6-(2-oxopiperidin-4-yl)-2-(thiazol-2-yl)-1,4-dihydro-pyrimidine-5-carboxylate], for which the midpoint of cytotoxicity in the data set on HepG2.2.15 cells, the CC50, lay at 5600 nM. The EC50 with HBV (setting [2]) stood at 132 nM.
With `COC(=O)C1=C(C2CCCN(S(C)(=O)=O)C2)NC(c2nccs2)=NC1c1ccc(F)cc1Cl` (single isomer, unassigned) [Compound 33A, Methyl 4-(2-chloro-4-fluorophenyl)-6-(1-(methylsulfonyl)piperidin-3-yl)-2-(thiazol-2-yl)-1,4-dihydropyrimidine-5-carboxylate], the CC50 in the data set on HepG2.2.15 cells turned out to be 78100 nM. Moreover, the EC50 in the data set on HBV (setting [2]) was determined as 190 nM.
`COC(=O)C1=C(C2CCCN(S(C)(=O)=O)C2)NC(c2nccs2)=NC1c1ccc(F)cc1Cl` (single isomer, unassigned) [Compound 33C, Methyl 4-(2-chloro-4-fluorophenyl)-6-(1-(methylsulfonyl)piperidin-3-yl)-2-(thiazol-2-yl)-1,4-dihydropyrimidine-5-carboxylate]: the CC50 in the data set on HepG2.2.15 cells came to 37700 nM. In addition, in the data set with HBV (setting [2]), the EC50 is 484 nM.
As for `COC(=O)C1=C(C2CCCOC2)NC(c2nccs2)=NC1c1ccc(F)cc1Cl` (single isomer, unassigned) [Compound 48A, Methyl 4-(2-chloro-4-fluorophenyl)-6-(tetrahydro-2H-pyran-3-yl)-2-(thiazol-2-yl)-1,4-dihydropyrimidine-5-carboxylate], in the data set with HepG2.2.15 cells, the CC50 worked out at 46900 nM. Also, the EC50 in the data set on HBV (setting [2]) is 565 nM.
The compound `COC(=O)C1=C(C2CCCOC2)NC(c2nccs2)=NC1c1ccc(F)cc1Cl` (single isomer, unassigned) [Compound 48D, Methyl 4-(2-chloro-4-fluorophenyl)-6-(tetrahydro-2H-pyran-3-yl)-2-(thiazol-2-yl)-1,4-dihydropyrimidine-5-carboxylate] had a CC50 in the data set on HepG2.2.15 cells of over 100000 nM. Further, in the data set on HBV (setting [2]), the EC50 came out at 210 nM.
`COC(=O)C1=C(C2CCC(NS(C)(=O)=O)C2)NC(c2nccs2)=NC1c1cccc(F)c1Cl` (single isomer, unassigned) [Compound 61B, Methyl 4-(2-chloro-3-fluorophenyl)-6-(3-(methylsulfonamido)-cyclopentyl)-2-(thiazol-2-yl)-1,4-dihydropyrimidine-5-carboxylate] showed a CC50 in the data set with HepG2.2.15 cells of over 20000 nM. Besides, the EC50 in the data set with HBV (setting [2]) amounted to 333 nM.
The compound `COC(=O)C1=C(C2CCC(NS(C)(=O)=O)C2)NC(c2nccs2)=NC1c1cccc(F)c1Cl` (single isomer, unassigned) [Compound 61D, Methyl 4-(2-chloro-3-fluorophenyl)-6-(3-(methylsulfonamido)-cyclopentyl)-2-(thiazol-2-yl)-1,4-dihydropyrimidine-5-carboxylate] had a CC50 in the data set on HepG2.2.15 cells of 33400 nM. Also, the EC50 in the data set with HBV (setting [2]) was found to be 35 nM.
In the data set on HepG2.2.15 cells, `COC(=O)C1=C(C2CCC(NS(C)(=O)=O)C2)NC(c2nccs2)=NC1c1cccc(F)c1Cl` (single isomer, unassigned) [Compound 61E, Methyl 4-(2-chloro-3-fluorophenyl)-6-(3-(methylsulfonamido)cyclopentyl)-2-(thiazol-2-yl)-1,4-dihydropyrimidine-5-carboxylate] registered a CC50 of 21700 nM. In addition, the EC50 in the data set with HBV (setting [2]) is 358 nM.
Taken in the same sequence, the figures for `COC(=O)C1=C(C2CCC(NS(C)(=O)=O)C2)NC(c2nccs2)=NC1c1cccc(F)c1Cl` (single isomer, unassigned) [Compound 61G, Methyl 4-(2-chloro-3-fluorophenyl)-6-(3-(methylsulfonamido)-cyclopentyl)-2-(thiazol-2-yl)-1,4-dihydropyrimidine-5-carboxylate] were over 10000 nM and 423 nM.
In the data set with HepG2.2.15 cells, `COC(=O)C1=C(C2CCC(NC(C)=O)C2)NC(c2nccs2)=NC1c1cccc(F)c1Cl` (single isomer, unassigned) [Compound 62B, Methyl 6-(3-acetamidocyclopentyl)-4-(2-chloro-3-fluorophenyl)-2-(thiazol-2-yl)-1,4-dihydropyrimidine-5-carboxylate] registered a CC50 of 22900 nM. Further, in the data set on HBV (setting [2]), the EC50 turned out to be 63 nM.
`CCOC(=O)C1=C(C2CCN(S(=O)(=O)CC3CC(C(=O)O)C3)CC2)NC(c2nccs2)=NC1c1ccc(F)c(F)c1Cl` (stereo not shown) [Compound 480B, 3-(((4-(6-(2-Chloro-3,4-difluorophenyl)-5-(ethoxycarbonyl)-2-(thiazol-2-yl)-3,6-dihydropyrimidin-4-yl)piperidin-1-yl)sulfonyl)methyl)cyclobutanecarboxylic Acid] showed a CC50 at 6 days in data set [1] of 9900 nM. The EC50 in the data set on HBV (setting [3]) came to 22 nM.
In the case of `CCOC(=O)C1=C(C2CCN(S(=O)(=O)C3CC(CC(=O)O)C3)CC2)NC(c2nccs2)=NC1c1ccc(F)c(F)c1Cl` (stereo not shown) [Compound 482A, 2-(3-((4-(6-(2-Chloro-3,4-difluorophenyl)-5-(ethoxycarbonyl)-2-(thiazol-2-yl)-3,6-dihydropyrimidin-4-yl)piperidin-1-yl)sulfonyl)cyclobutyl)acetic Acid], the CC50 at 6 days in data set [1] was found to be 15300 nM. Further, in the data set on HBV (setting [3]), the EC50 came to 6 nM.
Compound `COC(=O)C1=C(C2CCN(S(=O)(=O)CCOCCO)CC2)NC(c2nccs2)=NC1c1ccc(F)cc1Cl` (stereo not shown) [Compound 484, Methyl 4-(2-chloro-4-fluorophenyl)-6-(1-((2-(2-hydroxyethoxy)ethyl)sulfonyl)piperidin-4-yl)-2-(thiazol-2-yl)-1,4-dihydropyrimidine-5-carboxylate] returned a CC50 at 6 days in data set [1] of 47000 nM. In the data set with HBV (Hepatitis B virus, HepG2.2.15, 144 h), it took 5 nM to reach a half-maximal effect (EC50).
